Experimental findings from patent publication US11944662B2, “Methods and compositions for preventing or treating ophthalmic conditions” (Stealth BioTherapeutics Inc., priority 2009, dated 2024) are described below.

One data set has as its system HRECs. Put plainly: Survival of HRECs in high glucose, Annexin V/PI flow cytometry. Format: cell-based, human. The settings on record: 24 hours after treatment. Here is the method:
FIGS. 1A and 1B show the effects of different concentrations of SS-31 (10 nM, 100 nM, 1 μM and 10 μM) used as co-treatment with 30 mM glucose (HG). […] FIG. 1B is a graphic representation of the survival ratio for HRECs.
See generally, Li B, Tang S B, Zhang G, Chen J H, Li B J. Culture and characterization of human retinal capillary endothelial cell. Chin Ophthal Res 2005; 23: 20-2; Premanand C, Rema M, Sameer M Z, Sujatha M, Balasubramanyam M. Effect of curcumin on proliferation of human retinal endothelial cells under in vitro conditions. Invest Ophthalmol Vis Sci 2006; 47: 2179-84.
Briefly, HREC cells were divided into three groups: a normal control group; a group administered 30 mM glucose; and a group administered 30 mM glucose+SS-31. Survival of HRECs in high glucose co-treated with different concentrations of SS-31 (10 nM, 100 nM, 1 μM, 10 μM) was measured using an Annexin V+PI assay and flow cytometry. See generally, Koopman, G., Reutelingsperger, C. P., Kuijten, G. A. M., Keehnen, R. M. J., Pals, S. T., and van Oers, M. H. J. 1994. Annexin V for flow cytometric detection of phosphatidylserine expression on B cells undergoing apoptosis. Blood 84: 1415; Homburg, C. H., de Haas, M., von dem Borne, A. E., Verhoeven, A. J., Reutelingsperger, C. P., and Roos, D. 1995. Human neutrophils lose their surface Fc gamma Rill and acquire Annexin V binding sites during apoptosis in vitro. Blood 85: 532; Vermes, I., Haanen, C., Steffens-Nakken, H., and Reutelingsperger, C. 1995. A novel assay for apoptosis-flow cytometric detection of phosphatidylserine expression on early apoptotic cells using fluorescein labelled Annexin V. J. Immunol. Meth. 184: 39; Fadok, V. A., Voelker, D. R., Campbell, P. A., Cohen, J. J., Bratton, D. L., and Henson, P. M. 1992. Exposure of phosphatidylserine on the surface of apoptotic lymphocytes triggers specific recognition and removal by macrophages. J. Immunol. 148: 2207.
The survival of HRECs in high glucose co-treated with SS-31 was tested at 24 h and 48 h.

Data set [1] has as its system GTM cells. To be noted: n=4.
Description: (§4) The effects of SS-31 at mitigating acute oxidative injury in GTM and HTM cells was investigated.
In data set [2] the test system is primary human retinal pigment epithelial (RPE) cells. The settings on record: different concentrations, 24 h.
Description: Primary cultured human RPE cells were incubated with different concentrations of SS-31 alone for a period of 24 h, and cell viability was determined by a MTT assay (FIG. 22).
Data set [3] relates to HTM cells. The settings on record: n=4.
Description: as §4
In data set [4] the test system is trabecular meshwork cells from glaucoma patients (GTM). The procedure: (§1) To assess whether SS-31 had cytotoxic effects of HTM or GTM cells, various concentrations of SS-31 were administered to cells and the cytotoxicity was measured using an LDH assay. A LDH cytotoxicity assay is a colorimetric method of assaying cellular cytotoxicity. The assay quantitatively measures the stable, cytosolic, lactate dehydrogenase (LDH) enzyme, which is released from damaged cells. The released LDH is measured with a coupled enzymatic reaction that results in the conversion of a tetrazolium salt (iodonitrotetrazolium (INT)) into a red color formazan by diaphorase. […] See generally, Haslam, G. et al. (2005) Anal. Biochem. 336: 187; Tarnawski, A. (2005) Biochem. Biophys. Res. Comm. 333: 207; Round, J. L et al. (2005) J. Exp. Med. 201: 419; Bose, C. et al. (2005) Am. J. Physiol. Gastr. L. 289: G926; Chen, A. and Xu, J. (2005) Am. J. Physiol. Gastr. L. 288: G447. The LDH activity is determined as NADH oxidation or INT reduction over a defined time period.

Data set [5] deals with trabecular meshwork cells from non-diseased individuals (HTM). Here is the method:
as §1

Data set [6] deals with GTM cells. The settings on record: n=3. The text has this: (§2) FIG. 37 is a graph showing the fluorescence intensity of ROS of GTM and HTM cells in control and SS-31-treated groups, as measured using FACS analysis.
Data set [7] has as its system HTM cells. To be noted: n=4.
Description: as §2
This is another data set of the same source.

Data set [8] relates to lenses of diabetic rats. Put plainly: Cataract formation in lenses, HFD/STZ diabetic rat model. To be noted: for Percentage of opacity (%) / Percentage of severe opacity (%) / Turbidity degree ++++ (count) / Turbidity degree +++ (count) / Turbidity degree ++ (count) / Turbidity degree + (count) / Turbidity degree − (count): HFD/STZ rat model; for Turbidity degree ++++ (count): ++++: severely opaque; for Turbidity degree +++ (count): +++: moderately opaque; for Turbidity degree ++ (count): ++: opaque; for Turbidity degree + (count): +: mildly opaque; for Turbidity degree − (count): −: transparent. The data set is classed as in vivo, Sprague-Dawley rat. The procedure: The example describes the results of such experiments.
(§3) A rat model of diabetes was established by combination of 6-week HFD and low dose of STZ (30 mg/kg) injection or a single high dose of STZ (65 mg/kg) in SD rats. See generally, K. Srinivasan, B. Viswanad, Lydia Asrat, C. L. Kaul and P. Ramarao, Combination of high-fat diet-fed and low-dose streptozotocin-treated rat: A model for type 2 diabetes and pharmacological screening, Pharmacological Research, 52(4): 313-320, 2005. Rats of the same batch fed with normal chow (NRC) were used as a control.

The subject of data set [9] is lenses of diabetic rats. Put plainly: Cataract formation in lenses, STZ diabetic rat model. Format: in vivo, Sprague-Dawley rat. To be noted: 10 mg (Table 9: 10 mg/kg s.c.). Here is the method: as §3
In data set [10] the test system is inner blood-retinal barrier. Put plainly: Inner blood-retinal barrier function, Evans blue extravasation, diabetic rats. Format: in vivo, Sprague-Dawley rat. The settings on record: compared to rats on a HFD not administered SS-20 or SS-31. An excerpt:
FIGS. 10A-10B is a series of charts showing the integrity of the blood-retinal barrier of normal rats (NRC), diabetic rats, and diabetic rats treated with SS-20 or SS-31, as analyzed by Evans blue extravasation. (10A) diabetes induced by STZ; (10B) diabetes induced by HFD/STZ.
The effect of the aromatic-cationic peptides on the inner blood-retinal barrier function in the SD rat model was investigated.

Read-outs that look alike come from different tables or passages of the source. Where a SMILES comes first, the peptide text is derived from it. Where no end group is shown, it is not given here. [ ]: non-standard residue; d: D form. Dmt = Cc1cc(O)cc(C)c1C[C@H](N)C(=O)O

Take `Cc1cc(O)cc(C)c1C[C@H](NC(=O)[C@H](N)CCCNC(=N)N)C(=O)N[C@@H](CCCCN)C(=O)N[C@@H](Cc1ccccc1)C(N)=O` [SS-31, D-Arg-2′,6′-Dmt-Lys-Phe-NH2] (H-[dR][Dmt]KF-NH2): the “survival ratios for HRECs (Q3)” value with HRECs (30 mM glucose + SS-31 10 nM) was determined as 84.3%; in the data set on HRECs (30 mM glucose + SS-31 100 nM), 90.7%; in the data set on HRECs (30 mM glucose + SS-31 1 μM) it was 92.8%; in the data set with HRECs (30 mM glucose + SS-31 10 μM), 94.3%. Moreover, the “percentage of fluorescence intensity of TMRM compared to GTM control” value in the data set on GTM cells [1] (H2O2 + SS-31 10^−6 M) is reported as 56.2±4.04%; in the data set on GTM cells [1] (H2O2 + SS-31 10^−7 M) it was 50.3±4.46%; in the data set with GTM cells [1] (H2O2 + SS-31 10^−8 M), 47.5±2.82%. Moreover, in [2], the “cell viability (MTT assay), SS-31 alone” value is “did not adversely effect”. For the same compound, the “percentage of fluorescence intensity of TMRM, HTM groups” value in the data set with HTM cells [3] (H2O2 + SS-31 10^−6 M) is 57.7±1.80%; in the data set on HTM cells [3] (H2O2 + SS-31 10^−7 M), 50.6±3.06%; in the data set on HTM cells [3] (H2O2 + SS-31 10^−8 M), 49.4±2.27%. The cytotoxicity entry in data set [4] (at 10^−3 M) and in data set [5] (at 10^−3 M) was “no cytotoxicity” in each case. Besides, the “viability (LDH cytotoxicity assay)” value in data set [4] (various concentrations) and in [5] (various concentrations) was “does not affect the viability” in each case. The “percentage of intracellular ROS production compared to GTM control” value in the data set with GTM cells [6] (H2O2 + SS-31 10^−6 M) is listed as 84.5±8.75%; with GTM cells [6] (H2O2 + SS-31 10^−7 M) it was 102.0±5.69%; in the data set with GTM cells [6] (H2O2 + SS-31 10^−8 M), 133.0±5.17%. The “percentage of intracellular ROS production, HTM groups” value in the data set with HTM cells [7] (H2O2 + SS-31 10^−6 M) is on record as 79±2.39%; with HTM cells [7] (H2O2 + SS-31 10^−7 M), 91.8±3.49%; in the data set on HTM cells [7] (H2O2 + SS-31 10^−8 M), 129.0±8.24%.

For F[dR]FK-NH2 [SS-20], the “cataract formation in the lenses of diabetic rats” value in the data set with lenses of diabetic rats [8] (HFD/STZ and STZ models (FIGS. 6 and 7, Tables 11 and 12)) is recorded as “prevention or reversal of cataract formation”. In the data set with lenses of diabetic rats [8] (3 mg (Table 7: 3 mg/kg s.c.)), the “Percentage of opacity (%)” value came to 75.0%, the “Percentage of severe opacity (%)” value is given as 25.0%, the “Turbidity degree ++++ (count)” value stood at 1 and the “Turbidity degree +++ (count)” value is listed as 0. Also, in the data set on lenses of diabetic rats [8] (3 mg (Table 7: 3 mg/kg s.c.)), the “Turbidity degree ++ (count)” value is given as 1, the “Turbidity degree + (count)” value was 1 and the “Turbidity degree − (count)” value is reported as 1. For the same compound, in the data set with lenses of diabetic rats [8] (10 mg (Table 7: 10 mg/kg s.c.)), the “Percentage of opacity (%)” value is given as 75.0%, the “Percentage of severe opacity (%)” value was 0%, the “Turbidity degree ++++ (count)” value turned out to be 0 and the “Turbidity degree +++ (count)” value is on record as 0. Moreover, in the data set with lenses of diabetic rats [8] (10 mg (Table 7: 10 mg/kg s.c.)), the “Turbidity degree ++ (count)” value came to 1, the “Turbidity degree + (count)” value came to 2 and the “Turbidity degree − (count)” value was 1. Besides, in the data set with lenses of diabetic rats [9], the “Percentage of opacity (%)” value amounted to 60.0% and the “Percentage of severe opacity (%)” value is recorded as 20.0%. Moreover, in the data set on lenses of diabetic rats [9] (++++: severely opaque), the “Opacity degree ++++ (count)” value amounted to 1. The “Opacity degree +++ (count)” value in the data set on lenses of diabetic rats [9] (+++: moderately opaque) worked out at 0. Also, the “Opacity degree ++ (count)” value in the data set with lenses of diabetic rats [9] (++: opaque) is on record as 2. In the data set with lenses of diabetic rats [9] (+: mildly opaque), the “Opacity degree + (count)” value was 0. Also, the “Opacity degree − (count)” value with lenses of diabetic rats [9] (−: transparent) is 2. Further, the “inner blood-retinal barrier function” value in data set [10] is recorded as “improved”.
